Reference: patent publication US5010093A, “Nitric ester derivative” (Fujisawa Pharmaceutical Co., Ltd., priority 1987, dated 1991)
In brackets after ≈: the same amount, converted by molar mass.

Key:
[1] = system: Normotensive Rats; test: Effect on Normotensive Rats (duration of hypotensive effect after oral dosing); format: in vivo; settings: 10 mg/kg, normotensive male S.D. rats fasted about 18 hours
Protocol: 7 to 9-week-old male S.D. rats with mean arterial blood pressure of 100-125 mmHg, weighing 245-375 g, were used. The animals were cannulated in the left femoral artery and the mean blood pressure and heart rate were measured with a pressure-transducer. The drugs were given orally. The animals were deprived of food for about 18 hours before oral dosing. The test drugs were dissolved in saline or ethanol, and given in oral doses of 10 mg/kg. The duration of half the maximum hypotensive effect was calculated as T 1/2. Compound 1 ,and Compound A.

[2] = system: Isolated Rat Aorta; test: Effect on Isolated Rat Aorta (relaxation of norepinephrine-contracted aortic strips); settings: aortic spiral strips, norepinephrine 3.2 ×10^-8 M tonus, 37° C., effect of papaverine 10^-4 M=100%, read-out: ED50 value
Protocol: The aortas were removed from rats. Spiral strips approximately 10 mm in length were cut from the aorta, and suspended in an organ bath containing Tyrode's solution at 37° C., aerated with a gas mixture of 95% oxygen and 5% carbon dioxide. The tonus of the strips was recorded on a polygraph with a force-displacement transducer. After the initial resting tension was adjusted to 0.5 g, norepinephrine 3.2 ×10^-8 M was added to the organ bath to increase the tonus of the aortic strips to 0.9-1.1 g.
The cumulative concentrations of the test compound were then added, and finally papaverine 10^-4 M was given to determine maximum relaxation. ED50 values were calculated by interpolation from the mean cumulative dose-activity curves (effect of papaverine 10^-4 M=100%).
N-(2-Nitrooxyethyl)-2-methyl-4-thiazolecarboxamide hydrochloride (hereinafter referred to as Compound .circle.1 ), and N-(2-Nitrooxyethyl)-3-pyridinecarboxamide (Reference Compound A) (hereinafter referred to as Compound A).

Row | EC50 [2] [µg/mL] | Compound | T 1/2 (duration of half the maximum hypotensive effect) [1] [h]
1 | 0.94 (≈ 4.45 µM) | O=C(NCCO[N+](=O)[O-])c1cccnc1 [Compound A, N-(2-Nitrooxyethyl)-3-pyridinecarboxamide] | 0.833
2 | 0.091 (≈ 0.394 µM) | Cc1nc(C(=O)NCCO[N+](=O)[O-])cs1 [.circle.1] | 1.67
